Experimental data taken from patent publication US20230123334A1, “AMINO LIPID COMPOUND, PREPARATION METHOD THEREFOR, AND APPLICATION THEREOF” (SHENZHEN SHENXIN BIOTECHNOLOGY CO., LTD., priority 2020, published 2023).

Assays:
[1] = tested on: HEK293 cells; experiment: Preliminary screening as DNA vectors, GFP transfection of HEK293 cells; format: cell-based; conditions: HEK293 cells; lipid/DOPE liposome with 75 ng plasmid DNA (psin-EGFP-IRES-Puro); number of cells expressing GFP divided by total number of nuclei (Hoechst)
Method in brief: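 Lipid + DOPE liposomes (NaOAc, pH 5.6) complexed w/ 75 ng psin-EGFP-IRES-Puro, 30 min RT; added to 3-5×10^4 HEK293/well, 37° C. Hoechst 0.2 μg/mL at 20-24 h, imaged after further 20-24 h. Efficiency = GFP+ cells / total nuclei.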

[2] = tested on: HEK293 cells; experiment: Preliminary screening as mRNA vectors, EGFP mRNA transfection of HEK293 cells; format: cell-based; conditions: HEK293 cells, 96-well plates, EGFP mRNA 50 ng per well; percentage of GFP fluorescent cells relative to total number of cells (Hoechst)
Method in brief: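 Each well of HEK293 cells received 50 ng of EGFP mRNA. Efficiency was expressed as percent GFP-expressing cells over Hoechst-defined total cell number.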

SMILES	Absolute DNA transfection efficiency in HEK293 cells [1] [%]	Absolute mRNA transfection efficiency in HEK293 cells [2] [%]
CCCCCCCCCCCCCCCCCCSc1nc(NCCN2CCOCC2)nc(SCCCCCCCCCCCC)n1 [Compound S12S18D2]	0.0	0.0
CCCCCCCCCCCCCCCCNc1nc(NCCCCCCCCCCCCCCCC)nc(NCCCN2CCOCC2)n1 [Compound N16N16D8]	0.5	1.6
CCCCCCCCCCCCCCCSc1nc(NCCN2CCCCC2)nc(SCCCCCCCCCCC)n1 [Compound S11S15D4]	5.3	0.9
CCCCCCCCCCCCN(CCCCCCCCCCCC)c1nc(NCCCCCCCC)nc(NCCCN2CCN(C)CC2)n1 [N8^2N12D9]	0.2	0.4
CCCCCCCCCNc1nc(NCCCCCCCCC)nc(NCCCN(C)C)n1 [Compound N9N9D6]	0.2	0.4
CCCCCCCCCNc1nc(NCCCCCCCC)nc(NCC2CCN(C)CC2)n1 [Compound N8N9D10]	0.5	0.2
CCCCCCCCCCCCCNc1nc(NCCN2CCN(C)CC2)nc(N(CCCCCCCCCCCC)CCCCCCCCCCCC)n1 [N13^2N12D5]	0.0	4.9
CCCCCCCCCCCCCCCCCCSc1nc(NCCN2CCOCC2)nc(SCCCCCCCCCCCCCCCCCC)n1 [Compound S18S18D2]	0.0	0.1
CCCCCCCCCCCCCCCCSc1nc(NCCCN2CCOCC2)nc(SCCCCCCCCCCCCCC)n1 [Compound S14S16D8]	0.0	0.0
CCCCCCCCCCCCN(CCCCCCCCCCCC)c1nc(NCCCCCC)nc(NCCN(CC)CC)n1 [N6^2N12D7]	0.1	0.3
CCCCCCCCCCCCCNc1nc(NCCCCCCCCCCC)nc(NCCN2CCOCC2)n1 [Compound N11N13D2]	0.0	0.1
CCCCCCCCCCCCCCCCNc1nc(NCCCCCCCCCCCCCCC)nc(NCCN(CC)CC)n1 [Compound N15N16D7]	0.9	0.0
CCCCCCCCCCCCN(CCCCCCCCCCCC)c1nc(NCCCCCCC)nc(NCCCN(C)C)n1 [N7^2N12D6]	0.7	4.8
CCCCCCCCNc1nc(NCCCCCCC)nc(NCC2CCN(C)CC2)n1 [Compound N7N8D10]	0.0	0.6
CCCCCCCCCCCCCCCSc1nc(NCCN(CC)CC)nc(SCCCCCCCC)n1 [Compound S8S15D7]	13.8	0.0
CCCCCCCCCNc1nc(NCCCCCCC)nc(NCCN2CCOCC2)n1 [Compound N7N9D2]	0.0	0.0
CCCCCCCCCCCCCCCCCCSc1nc(NCC2CCN(C)CC2)nc(SCCCCCCCCCCCCCCC)n1 [Compound S15S18D10]	0.3	1.8
CCCCCCCCCCCCNc1nc(NCCCCCCCCC)nc(NCC2CCN(C)CC2)n1 [Compound N9N12D10]	0.0	0.4
CCCCCCCCCCCCSc1nc(NCCN2CCOCC2)nc(SCCCCCCCCCCC)n1 [Compound S11S12D2]	0.1	0.0
CCCCCCCCCCCCCCCCCCSc1nc(NCCN2CCCCC2)nc(SCCCCCCCCCCCCCCC)n1 [Compound S15S18D4]	0.3	0.0
CCCCCCCCCCCCCNc1nc(NCCCCCCC)nc(NCCCN2CCN(C)CC2)n1 [Compound N7N13D9]	1.3	0.1
CCCCCCCCCCCCCCCSc1nc(NCC2CCN(C)CC2)nc(SCCCCCCCCCCCCCCC)n1 [Compound S15S15D10]	1.0	0.3
CCCCCCCCCCCCCCCCCCNc1nc(NCCCCCCCCCCCCC)nc(NCCN2CCN(C)CC2)n1 [Compound N13N18D5]	0.2	0.7
CCCCCCCCCCCCN(CCCCCCCCCCCC)c1nc(NCCCCCCCC)nc(NCCCN2CCOCC2)n1 [N8^2N12D8]	0.2	2.0

SMILES	Absolute DNA transfection efficiency in HEK293 cells [1] [%]	Absolute mRNA transfection efficiency in HEK293 cells [2] [%]
CCCCCCCCCCCCCCCCCCNc1nc(NCCN(C)C)nc(N(CCCCCCCCCCCC)CCCCCCCCCCCC)n1 [N18^2N12D1]	1.0	0.4
CCCCCCCCCCSc1nc(NCC2CCN(C)CC2)nc(SCCCCCCCCCC)n1 [Compound S10S10D10]	18.8	87.1
CCCCCCCCCCCCCCCSc1nc(NCC2CCN(C)CC2)nc(SCCCCCCCCCCCCCC)n1 [Compound S14S15D10]	0.3	0.5
CCCCCCCCCCCCCCCCCCNc1nc(NCCCCCCCCCCCCC)nc(NCCCN2CCN(C)CC2)n1 [Compound N13N18D9]	1.1	0.8
CCCCCCCCCCCCCCCSc1nc(NCCCN2CCOCC2)nc(SCCCCCCCCCCCCCCC)n1 [Compound S15S15D8]	0.0	0.2
CCCCCCCCCCCNc1nc(NCCCCCCCC)nc(NCCN(CC)CC)n1 [Compound N8N11D7]	0.0	0.0
CCCCCCCCCCSc1nc(NCCCN2CCOCC2)nc(SCCCCCCCCC)n1 [Compound S9S10D8]	22.5	9.8
CCCCCCCCCCCCCNc1nc(NCCCCCCC)nc(NCCN(CC)CC)n1 [Compound N7N13D7]	0.1	0.0
CCCCCCCCCCCCCCCNc1nc(NCCCCCCCCCCC)nc(NCCN2CCCCC2)n1 [Compound N11N15D4]	0.9	2.8
CCCCCCCCCCCCCCSc1nc(NCC2CCN(C)CC2)nc(SCCCCCCCCCCCCCC)n1 [Compound S14S14D10]	0.9	1.5
CCCCCCCCCCCCCCCCCCNc1nc(NCCCCCCCC)nc(NCCCN2CCN(C)CC2)n1 [Compound N8N18D9]	1.2	0.0
CCCCCCCCCCCCCCCNc1nc(NCCCCCCCCCCCCCCC)nc(NCCCN(C)C)n1 [Compound N15N15D6]	1.5	0.0
CCCCCCCCCCCCCCCCCCSc1nc(NCCCN2CCOCC2)nc(SCCCCCCCCCCC)n1 [Compound S11S18D8]	7.8	3.3
CCCCCCCCCCCCCCCNc1nc(NCCCCCCCCC)nc(NCCCN2CCOCC2)n1 [Compound N9N15D8]	0.2	1.4
CCCCCCCCCCCCCCCCNc1nc(NCCCCCCCCCCCCC)nc(NCC2CCN(C)CC2)n1 [Compound N13N16D10]	0.0	1.1
CCCCCCCCCCCSc1nc(NCC2CCN(C)CC2)nc(SCCCCCCCCCC)n1 [Compound S10S11D10]	13.3	93.7
CCCCCCCCCCCSc1nc(NCCN2CCN(C)CC2)nc(SCCCCCCCCCCC)n1 [Compound S11S11D5]	3.4	28.7
CCCCCCCCCCCCCCCCCCNc1nc(NCCCCCCCCC)nc(NCCCN(C)C)n1 [Compound N9N18D6]	2.2	2.5
CCCCCCCCCSc1nc(NCCN2CCN(C)CC2)nc(SCCCCCCCCC)n1 [Compound S9S9D5]	12.5	37.1
CCCCCCCCCCCCCCCCNc1nc(NCCN2CCCCC2)nc(N(CCCCCCCCCCCC)CCCCCCCCCCCC)n1 [N16^2N12D4]	3.2	0.0
CCCCCCCCCSc1nc(NCCN(CC)CC)nc(SCCCCCCCCC)n1 [Compound S9S9D7]	32.6	3.6
CCCCCCCCCSc1nc(NCC2CCN(C)CC2)nc(SCCCCCCCCC)n1 [Compound S9S9D10]	11.3	34.9
CCCCCCCCCCCCCCCSc1nc(NCCN2CCCC2)nc(SCCCCCCCCCC)n1 [Compound S10S15D3]	7.6	19.6
